Assays:
Format in all cases: cell-based, human
[1] = test system: Pgp+ (DiOC2(3)-dye effluxing cells) and CD62L+ T cells; assay: DiOC2(3) dye efflux plus CD62L-APC staining, flow cytometry of inhibitor-treated T cells; conditions: for p5: double +ve pgp+ and CD62L-APC+ from Live cells: treatment for 13 days, IL2 + CD3 and CD28 antibodies
Protocol: (§1) The use of P-glycoprotein (Pgp)-mediated efflux of DiOC2(3) to isolate stem like T cells for adoptive cellular therapy has been described in application no. […] In the following examples, DiOC2(3) staining was used to study the effect of different inhibitors on generation of stem like T cells.
(§2) DAY 0: Blood was obtained from unidentified donor. After RBC lysis, PBMC were collected using Ficoll-Hypaque separation. […] T cells were cultured in three different conditions: • 1. XVIVO 15 medium (Lonza) with IL2 50 IU/ml, CD3 antibody (30 ng/ml) and CD28 antibody (30 ng/ml). • 2. XVIVO 15 medium (Lonza) with CD3 antibody (30 ng/ml) and CD28 antibody (30 ng/ml). • 3. XVIVO 15 medium (Lonza) with IL2 50 IU/ml DAY 1: Cells were plated in a 6-well plate at a density of 1 million cells in 2 ml/of media (as described above) and treated with different inhibitors
(§3) The cell growth medium was changed in 6-well plates and fresh drugs were added at same concentration for one more week.
(§4) […] (DAY 11): Culture medium was changed and fresh drugs were added in 6-well plates.
(§5) Subsequently, cells were washed with RPMI medium and dye was effluxed at 37° C. for 90 min. Cells were washed with […], stained with CD62L-APC (5 μl/100 μl/sample) at 4° C. for 1 h, washed twice with PBS+1% FBS and analyzed on flow cytometer to check if these drugs treatment leads to increase in Pgp+/CD62L positive population.
(§6) Day 0: Blood was obtained from unidentified donor. After RBC lysis, PBMC were collected using Ficoll-Hypaque separation. 200 million T cells were isolated from PBMCs using CD3 microbeads. T cells were cultured overnight in XVIVO 15 medium (Lonza) with IL2 (50 IU/ml), 30 ng/ml of CD3 and CD28 antibodies
(§7) Day 1: Cells were plated in 24-well plates at a density of 0.3 million cells/ml in each well and treated with different drugs.
(§8) On day 7, culture medium was replaced with fresh medium with fresh drugs.
(§9) On day 13, culture medium was replaced with fresh medium and fresh drugs. Half of the cells were transferred to 6-well plates.
(§10) Day 14: An aliquot of cells with all the treatments listed above (for 13 days) was used to stain the cells with DiOC2(3) (60 ng/ml in RPMI medium) at 4° C. for 40 min, washed with RPMI medium, DiOC2(3) dye was effluxed at 37° C. for 90 min, washed with PBS+1% FBS, stained with CD62L-APC antibody. CD62L is a marker for resting T cells. (5 μl/100 μl/sample) at 4° C. for 1 h, washed twice with PBS+1% FBS and analyzed on flow cytometer to check if these drugs are affecting the dye-effluxing or Pgp+ (i.e., DiOC2(3)-dull) T-cell population.

[2] = test system: CD8+CD45RA+CCR7+CD62L+ T cells; assay: Flow cytometry for CD8, CD45RA, CCR7 and CD62L on inhibitor-treated T cells; conditions: for % of CD62L+CCR7+ double positive cells out of CD45RA+ cells in CD8+ T cell population: 13 days of treatment; for GATE P4 CD8(PerCP)+, CD45RA(FITC)+, CCR7 (PE)+, CD62L(APC): cells cultured for 14 days
Protocol: as §2
(§11) A second aliquot of the cells cultured for 13 days with all the treatments listed above (1-21) was washed with PBS+1% FBS, stained with CD8-PerCP, CD45RA-FITC, CCR7-PE and CD62L-APC ([…] for each of 4 antibodies) at 4° C. for 1 h, washed twice with […] and analyzed on flow cytometer to check if these drugs are enriching T stem cells showing surface expression of CD8+CD45RA+CCR7+CD62L+.
as §6, §7, §8, §9
(§12) A second aliquot of the cells cultured for 14 days with all the treatments listed above was washed with PBS+1% FBS, stained with CD8-PerCP, CD45RA-FITC, CCR7-PE and CD62L-APC (5 ul/100 ul/sample for each of 4 antibodies) at 4° C. for 1 h, washed twice with PBS+1% FBS and analyzed on flow cytometer to check if these drugs are enriching for T cells showing surface expression of CD8+CD45RA+CCR7+CD62L+.

[3] = test system: CD45RA+CCR7+CD62L+ T cells; assay: Flow cytometry for CD45RA, CCR7 and CD62L on inhibitor-treated T cells (all T cells); conditions: for % of CD62L+CCR7+ double positive cells out of CD45RA+ cells in live T cell population: 13 days treatment; for GATE P6 CD45RA(FITC)+, CCR7 (PE)+, CD62L(APC): cells cultured for 14 days
Protocol: as §2, §11, §6, §7, §8, §9, §12

[4] = test system: Pgp+ (DiOC2(3)-dye effluxing) T cells; assay: DiOC2(3) dye efflux flow cytometry of inhibitor-treated T cells; conditions: for p2: pgp+ from Live cells: treatment for 13 days, IL2 + CD3 and CD28 antibodies
Protocol: as §1, §2, §3, §4, §5, §6, §7, §8, §9, §10

[5] = culture with CD3 antibody, CD28 antibody and IL2, 6 days of treatment, 500 nM
[6] = CD3-CD28-IL2 culture, inhibitor 100 nM
[7] = CD3-CD28-IL2 culture, inhibitor 500 nM
[8] = CD3-CD28-IL2 culture, inhibitor 1 μM
[9] = CD3-CD28 culture, inhibitor 100 nM
[10] = CD3-CD28 culture, inhibitor 500 nM
[11] = CD3-CD28 culture, inhibitor 1 μM
[12] = CD3-IL2 culture, inhibitor 100 nM
[13] = CD3-IL2 culture, inhibitor 500 nM
[14] = CD3-IL2 culture, inhibitor 1 μM

SMILES: CCCc1cc(C)[nH]c(=O)c1CNC(=O)c1cc(-c2ccnc(N3CCN(C)CC3)c2)cc2c1cnn2C(C)C [GSK343]
- % of Pgp+ CD62L+cells out of live cells ([1]; CD3-CD28-IL2 culture, inhibitor 100 nM, 6 days treatment): 8.57%
- % of Pgp+ CD62L+cells out of live cells ([1]; CD3-CD28-IL2 culture, inhibitor 100 nM, 13 days treatment): 7.96%
- % of Pgp+ CD62L+cells out of live cells ([1]; CD3-CD28-IL2 culture, inhibitor 500 nM, 6 days treatment): 13.33%
- % of Pgp+ CD62L+cells out of live cells ([1]; CD3-CD28-IL2 culture, inhibitor 500 nM, 13 days treatment): 4.79%
- % of Pgp+ CD62L+cells out of live cells ([1]; CD3-CD28-IL2 culture, inhibitor 1 μM, 6 days treatment): 12.05%
- % of Pgp+ CD62L+cells out of live cells ([1]; CD3-CD28-IL2 culture, inhibitor 1 μM, 13 days treatment): 5.75%
- % of Pgp+ CD62L+cells out of live cells ([1]; CD3-CD28 culture, inhibitor 100 nM, 6 days treatment): 23.35%
- % of Pgp+ CD62L+cells out of live cells ([1]; CD3-CD28 culture, inhibitor 100 nM, 13 days treatment): 2.50%
- % of Pgp+ CD62L+cells out of live cells ([1]; CD3-CD28 culture, inhibitor 500 nM, 6 days treatment): 24.79%
- % of Pgp+ CD62L+cells out of live cells ([1]; CD3-CD28 culture, inhibitor 500 nM, 13 days treatment): 2.12%
- % of Pgp+ CD62L+cells out of live cells ([1]; CD3-CD28 culture, inhibitor 1 μM, 6 days treatment): 23.41%
- % of Pgp+ CD62L+cells out of live cells ([1]; CD3-CD28 culture, inhibitor 1 μM, 13 days treatment): 2.28%
- % of Pgp+ CD62L+cells out of live cells ([1]; CD3-IL2 culture, inhibitor 100 nM, 6 days treatment): 8.62%
- % of Pgp+ CD62L+cells out of live cells ([1]; CD3-IL2 culture, inhibitor 100 nM, 13 days treatment): 5.24%
- % of Pgp+ CD62L+cells out of live cells ([1]; CD3-IL2 culture, inhibitor 500 nM, 6 days treatment): 9.32%
- % of Pgp+ CD62L+cells out of live cells ([1]; CD3-IL2 culture, inhibitor 500 nM, 13 days treatment): 6.82%
- % of Pgp+ CD62L+cells out of live cells ([1]; CD3-IL2 culture, inhibitor 1 μM, 6 days treatment): 10.99%
- % of Pgp+ CD62L+cells out of live cells ([1]; CD3-IL2 culture, inhibitor 1 μM, 13 days treatment): 5.17%
- percentage of Pgp+CD62L+ cells [1, 5]: 13.33%
- % of CD62L+CCR7+ double positive cells out of CD45RA+ cells in CD8+ T cell population [2, 6]: 82.96%
- % of CD62L+CCR7+ double positive cells out of CD45RA+ cells in CD8+ T cell population [2, 7]: 82.42%
- % of CD62L+CCR7+ double positive cells out of CD45RA+ cells in CD8+ T cell population [2, 8]: 85.00%
- % of CD62L+CCR7+ double positive cells out of CD45RA+ cells in CD8+ T cell population [2, 9]: 85.28%
- % of CD62L+CCR7+ double positive cells out of CD45RA+ cells in CD8+ T cell population [2, 10]: 80.34%
- % of CD62L+CCR7+ double positive cells out of CD45RA+ cells in CD8+ T cell population [2, 11]: 85.70%
- % of CD62L+CCR7+ double positive cells out of CD45RA+ cells in CD8+ T cell population [2, 12]: 73.95%
- % of CD62L+CCR7+ double positive cells out of CD45RA+ cells in CD8+ T cell population [2, 13]: 77.29%
- % of CD62L+CCR7+ double positive cells out of CD45RA+ cells in CD8+ T cell population [2, 14]: 81.47%
- % of CD62L+CCR7+ double positive cells out of CD45RA+ cells in live T cell population [3, 6]: 66.40%
- % of CD62L+CCR7+ double positive cells out of CD45RA+ cells in live T cell population [3, 7]: 64.47%
- % of CD62L+CCR7+ double positive cells out of CD45RA+ cells in live T cell population [3, 8]: 67.37%
- % of CD62L+CCR7+ double positive cells out of CD45RA+ cells in live T cell population [3, 9]: 75.26%
- % of CD62L+CCR7+ double positive cells out of CD45RA+ cells in live T cell population [3, 10]: 67.97%
- % of CD62L+CCR7+ double positive cells out of CD45RA+ cells in live T cell population [3, 11]: 76.18%
- % of CD62L+CCR7+ double positive cells out of CD45RA+ cells in live T cell population [3, 12]: 58.51%
- % of CD62L+CCR7+ double positive cells out of CD45RA+ cells in live T cell population [3, 13]: 61.18%
- % of CD62L+CCR7+ double positive cells out of CD45RA+ cells in live T cell population [3, 14]: 61.06%
- % of Pgp+ cells out of live cells ([4]; CD3-CD28-IL2 culture, inhibitor 100 nM, 6 days of treatment): 23.29%
- % of Pgp+ cells out of live cells ([4]; CD3-CD28-IL2 culture, inhibitor 100 nM, 13 days of treatment): 27.15%
- % of Pgp+ cells out of live cells ([4]; CD3-CD28-IL2 culture, inhibitor 500 nM, 6 days of treatment): 30.62%
- % of Pgp+ cells out of live cells ([4]; CD3-CD28-IL2 culture, inhibitor 500 nM, 13 days of treatment): 18.00%
- % of Pgp+ cells out of live cells ([4]; CD3-CD28-IL2 culture, inhibitor 1 μM, 6 days of treatment): 28.03%
- % of Pgp+ cells out of live cells ([4]; CD3-CD28-IL2 culture, inhibitor 1 μM, 13 days of treatment): 23.42%
- % of Pgp+ cells out of live cells ([4]; CD3-CD28 culture, inhibitor 100 nM, 6 days of treatment): 48.43%
- % of Pgp+ cells out of live cells ([4]; CD3-CD28 culture, inhibitor 100 nM, 13 days of treatment): 11.66%
- % of Pgp+ cells out of live cells ([4]; CD3-CD28 culture, inhibitor 500 nM, 6 days of treatment): 47.09%
- % of Pgp+ cells out of live cells ([4]; CD3-CD28 culture, inhibitor 500 nM, 13 days of treatment): 10.34%
- % of Pgp+ cells out of live cells ([4]; CD3-CD28 culture, inhibitor 1 μM, 6 days of treatment): 46.26%
- % of Pgp+ cells out of live cells ([4]; CD3-CD28 culture, inhibitor 1 μM, 13 days of treatment): 9.43%
- % of Pgp+ cells out of live cells ([4]; CD3-IL2 culture, inhibitor 100 nM, 6 days of treatment): 25.49%
- % of Pgp+ cells out of live cells ([4]; CD3-IL2 culture, inhibitor 100 nM, 13 days of treatment): 20.31%
- % of Pgp+ cells out of live cells ([4]; CD3-IL2 culture, inhibitor 500 nM, 6 days of treatment): 25.21%
- % of Pgp+ cells out of live cells ([4]; CD3-IL2 culture, inhibitor 500 nM, 13 days of treatment): 23.54%
- % of Pgp+ cells out of live cells ([4]; CD3-IL2 culture, inhibitor 1 μM, 6 days of treatment): 28.31%
- % of Pgp+ cells out of live cells ([4]; CD3-IL2 culture, inhibitor 1 μM, 13 days of treatment): 17.50%
- percentage of Pgp+ cells [4, 5]: 30.62%

SMILES: Cc1cc(C)c(CNC(=O)c2cc(-c3ccc(N4CCN(C)CC4)nc3)cc3c2c(C)cn3C(C)C)c(=O)[nH]1 [GSK503]
- p5: double +ve pgp+ and CD62L-APC+ from Live cells ([1]; 1 μM): 15.79
- p5: double +ve pgp+ and CD62L-APC+ from Live cells ([1]; 2 μM): 19.99
- GATE P4 CD8(PerCP)+, CD45RA(FITC)+, CCR7 (PE)+, CD62L(APC) ([2]; 1 μM): 75.24%
- GATE P4 CD8(PerCP)+, CD45RA(FITC)+, CCR7 (PE)+, CD62L(APC) ([2]; 2 μM): 75.8%
- GATE P6 CD45RA(FITC)+, CCR7 (PE)+, CD62L(APC) ([3]; 1 μM): 63.54%
- GATE P6 CD45RA(FITC)+, CCR7 (PE)+, CD62L(APC) ([3]; 2 μM): 62.62%
- p2: pgp+ from Live cells ([4]; 1 μM): 47.87
- p2: pgp+ from Live cells ([4]; 2 μM): 56.13

Reference: patent US20210290676A1, “IMPROVING THE EFFICACY AND SAFETY OF ADOPTIVE CELLULAR THERAPIES” (University of Southern California, priority 2018, published 2021)
